In ChEMBL document CHEMBL5335777 (Eur J Med Chem, 2023):
Calls of active or inactive are those of the source. No cut-off for these calls is given here.

Tests used:
[1] = Cytotoxicity against human MRC5 cells assessed as inhibition of cell growth incubated for 72 hrs by MTT assay; format: toxicity, cell-based
[2] = organism: Homo sapiens; assay: Inhibition of GDP-bound human KRAS 149stop G12C mutant expressed in Escherichia coli BL21 Rosetta cells assessed as inhibition of SOS1 mediated nucleotide exchange at 250 uM measured after 24 hrs by fluorescence based analysis
[3] = system: BXPC-3; assay: Antiproliferative activity against human BXPC-3 cells harboring wild type KRAS assessed as inhibition of cell growth incubated for 72 hrs by MTT assay; format: functional, cell-based; conditions: BXPC-3, 72 h
[4] = system: NCI-H1792; assay: Antiproliferative activity against human NCI-H1792 cells harboring KRAS G12C mutant assessed as cell viability at 25 uM incubated for 72 hrs by MTT assay relative to control; format: functional; conditions: read-out: Activity
[5] = system: LCLC-103H cell line; assay: Antiproliferative activity against human LCLC-103H cells harboring wild type KRAS assessed as inhibition of cell growth incubated for 72 hrs by MTT assay; format: functional, cell-based
[6] = system: PANC-1; assay: Antiproliferative activity against human PANC-1 cells harboring heterozygous KRAS G12D mutant assessed as inhibition of cell growth incubated for 72 hrs by MTT assay; format: functional, cell-based; conditions: PANC-1, 72 h
[7] = organism: Homo sapiens; assay: Inhibition of GDP-bound human KRAS 149stop G12C mutant expressed in Escherichia coli BL21 Rosetta cells assessed as inhibition of EDTA mediated nucleotide exchange at 250 uM measured after 24 hrs by fluorescence based analysis
[8] = Cmax in NOD-SCID mouse at 15 mg/kg, ip administered as single dose and measured upto 48 hrs by HPLC/MS analysis; format: ADME, organism-based; parameters: time < 48 hrs, dose 15 mg/kg, route ip; conditions: in vivo
[9] = system: LCLC-103H cell line; assay: Antitumor activity against human LCLC-103H cells harboring wild type KRAS xenografted in immunodeficient NOD-SCID mouse assessed as tumor volume at 5 to 30 mg/kg, ip administered for 5 times at 5 mg/kg in first week followed by administration at 20 mg/kg 5 times in second week and further administered 30 mg/kg 3 times in third week measured 17 days post treatment initiation and 35 days post tumor transplantation by digital caliper based analysis; format: functional; conditions: dose 5-30 mg/kg, time 17 day
[10] = system: NCI-H1792; assay: Antitumor activity against human NCI-H1792 cells harboring KRAS G12C mutant xenografted in immunodeficient NOD-SCID mouse assessed as reduction in tumor growth at 5 to 30 mg/kg, ip administered for 5 times at 5 mg/kg in first week followed by administration at 20 mg/kg 5 times in second week and further administered 30 mg/kg 3 times in third week measured 17 days post treatment initiation and 35 days post tumor transplantation by digital caliper based analysis relative to control; format: functional; parameters: scale not given: the % may be the effect or the level left; conditions: dose 5-30 mg/kg, time 17 day
[11] = system: GTPase KRas (Homo sapiens), P01116 [G12C]; assay: Covalent binding affinity to GDP-bound human KRAS-4B G12C mutant (1 to 169 residues) expressed in Escherichia coli BL21 Rosetta cells assessed as reduction in free Cys residues at 200 uM measured after 1 hr by Ellman's assay
[12] = Antiproliferative activity against human HCA-7 cells harboring wild type KRAS assessed as inhibition of cell growth incubated for 72 hrs by MTT assay; format: functional, cell-based, HCA7; conditions: HCA-7, 72 h
[13] = system: NCI-H358; assay: Antiproliferative activity against human NCI-H358 cells harboring heterozygous KRAS G12C mutant assessed as inhibition of cell growth incubated for 72 hrs by MTT assay; format: functional, cell-based; conditions: NCI-H358, 72 h
[14] = Clearance in NOD-SCID mouse at 15 mg/kg, ip administered as single dose and measured upto 48 hrs by HPLC/MS analysis; format: ADME, organism-based; conditions: in vivo
[15] = system: A549; assay: Antiproliferative activity against human A549 cells harboring homozygous KRAS G12S mutant assessed as inhibition of cell growth incubated for 72 hrs by MTT assay; format: functional, cell-based; conditions: A549, 72 h
[16] = system: MIA PaCa-2; assay: Antiproliferative activity against human MIA PaCa-2 cells harboring homozygous KRAS G12C mutant assessed as inhibition of cell growth incubated for 72 hrs by MTT assay; format: functional, cell-based; conditions: MIA PaCa-2, 72 h
[17] = Cytotoxicity against HUVEC cells immortalized with TERT assessed as inhibition of cell growth incubated for 72 hrs by MTT assay; format: toxicity, cell-based; conditions: human
[18] = system: GTPase KRas (Homo sapiens), P01116 [G12C]; assay: Binding affinity to Cys80 residue of GDP bound human KRAS-4B G12C mutant (1 to 169 residues) expressed in Escherichia coli BL21 Rosetta cells at 150 to 500 uM measured after 96 hrs by 1H-15N HSQC NMR spectral analysis; conditions: dose 150-500 µM
[19] = Tmax in NOD-SCID mouse at 15 mg/kg, ip administered as single dose and measured upto 48 hrs by HPLC/MS analysis; format: ADME, organism-based; conditions: in vivo
[20] = Volume of distribution in NOD-SCID mouse at 15 mg/kg, ip administered as single dose and measured upto 48 hrs by HPLC/MS analysis; format: ADME, organism-based; conditions: in vivo
[21] = system: NCI-H1792; assay: Antiproliferative activity against human NCI-H1792 cells harboring KRAS G12C mutant assessed as reduction in cell viability at 2.5 uM incubated for 72 hrs by MTT assay; format: functional, cell-based
[22] = Half life in NOD-SCID mouse at 15 mg/kg, ip administered as single dose and measured upto 48 hrs by HPLC/MS analysis; format: ADME, organism-based; conditions: in vivo
[23] = Cytotoxicity against human CCD-986Sk cells assessed as inhibition of cell growth incubated for 72 hrs by MTT assay; format: toxicity, cell-based
[24] = system: SW480; assay: Antiproliferative activity against human SW480 cells harboring homozygous KRAS G12V mutant assessed as inhibition of cell growth incubated for 72 hrs by MTT assay; format: functional, cell-based; conditions: SW480, 72 h
[25] = system: GTPase KRas (Homo sapiens), P01116 [G12C]; assay: Binding affinity to Cys118 residue of GDP bound human KRAS-4B G12C mutant (1 to 169 residues) expressed in Escherichia coli BL21 Rosetta cells at 150 to 500 uM measured after 96 hrs by 1H-15N HSQC NMR spectral analysis; conditions: dose 150-500 µM
[26] = system: GTPase KRas (Homo sapiens), P01116 [G12C]; assay: Reversible binding affinity to GDP-bound human KRAS-4B G12C mutant (1 to 169 residues) expressed in Escherichia coli BL21 Rosetta cells by intact LCMS analysis
[27] = system: NCI-H1792; assay: Antiproliferative activity against human NCI-H1792 cells harboring heterozygous KRAS G12C mutant assessed as inhibition of cell growth incubated for 72 hrs by MTT assay; format: functional, cell-based; conditions: NCI-H1792, 72 h
[28] = system: GTPase KRas (Homo sapiens), P01116 [G12C]; assay: Binding affinity to Cys51 residue of GDP bound human KRAS-4B G12C mutant (1 to 169 residues) expressed in Escherichia coli BL21 Rosetta cells at 150 to 500 uM measured after 96 hrs by 1H-15N HSQC NMR spectral analysis; conditions: dose 150-500 µM
[29] = system: GTPase KRas (Homo sapiens), P01116 [G12C]; assay: Covalent binding affinity to GDP-bound human KRAS-4B G12C mutant (1 to 169 residues) expressed in Escherichia coli BL21 Rosetta cells at 200 uM measured after 4 hrs by Ellman's assay
[30] = (§1) Toxicity in immunodeficient NOD-SCID mouse xenografted with human LCLC-103H cells harboring wild type KRAS assessed as body weight at 5 to 30 mg/kg, ip administered for 5 times at 5 mg/kg in first week followed by administration at 20 mg/kg 5 times in second week and further administered 30 mg/kg 3 times in third week measured 17 days post treatment initiation and 35 days post tumor transplantation (reference value: 2.6 g); format: organism-based; conditions: in vivo, 408 h, dose 5-30 mg/kg, time 17 day
[31] = system: GTPase KRas (Homo sapiens), P01116 [G12C]; assay: Covalent binding affinity to GDP-bound human KRAS-4B G12C mutant (1 to 169 residues) expressed in Escherichia coli BL21 Rosetta cells at 200 uM measured after 15 mins by Ellman's assay
[32] = as §1, with “NCI-H1792” for “LCLC-103H”, “harboring” for “harboring wild type”, “KRAS G12C mutant” for “KRAS”, “6.6” for “2.6”; format: organism-based; conditions: in vivo, 408 h, dose 5-30 mg/kg, time 17 day
[33] = AUCt in NOD-SCID mouse at 15 mg/kg, ip administered as single dose and measured upto 48 hrs by HPLC/MS analysis; format: ADME, organism-based; parameters: dose 15 mg/kg, time < 48 hrs, route ip; conditions: in vivo
[34] = as §1, with “NCI-H1792” for “LCLC-103H”, “harboring” for “harboring wild type”, “KRAS G12C mutant” for “KRAS”, “20” for “17”, “38” for “35”, “6.6” for “2.6”; format: organism-based; conditions: in vivo, 480 h, dose 5-30 mg/kg, time 20 day
[35] = system: SW1573; assay: Antiproliferative activity against human SW1573 cells harboring homozygous KRAS G12C mutant assessed as inhibition of cell growth incubated for 72 hrs by MTT assay; format: functional, cell-based; conditions: SW1573, 72 h
[36] = system: GTPase KRas (Homo sapiens), P01116 [G12C]; assay: Binding affinity to Cys12 residue of GDP bound human KRAS-4B G12C mutant (1 to 169 residues) expressed in Escherichia coli BL21 Rosetta cells at 150 to 500 uM measured after 96 hrs by 1H-15N HSQC NMR spectral analysis; conditions: dose 150-500 µM

Structure (SMILES) | inhibition [2] | viability at 25 µM [4] | inhibition [7] | Cmax [8] | Activity [9] | Activity [10] | IC50 [12] | IC50 [13] | CL/F [14] | IC50 [16] | IC50 at 72 h [17] | Tmax [19] | Vd [20] | Activity [21] | half-life [22] | IC50 at 72 h [23] | IC50 [27] | Activity [30] | Activity [32] | AUC(0-t) at 48 h [33] | further results
O=Cc1c(O)ccc2ccccc12 | Active | < 50% | Active | 27400 ng/mL | 9.2 mm3 | 32.5% | 26.2 µM | 12.3 µM | 0.183 mL/min | 24.5 µM | 10.8 µM | 15 min | 63.6 mL | Active | 240 min | 66.2 µM | 11.4 µM | 0 g | 5.2 g | 28300 ng·h/mL | IC50 at 72 h [1]: 25 µM; IC50 [3]: 46.9 µM; IC50 [5]: 32.4 µM; IC50 [6]: 27.6 µM; Activity [11]: Active; IC50 [15]: 43.3 µM; Activity [18]: inactive; IC50 [24]: 44.5 µM; Activity [25]: inactive; Activity [26]: Active; Activity [28]: inactive; Activity [29]: 100%; Activity [31]: Active; Activity [34]: 4.9 g; IC50 [35]: 24.2 µM; Activity [36]: Active
C=CC(=O)N1CCN(c2ncnc3c(F)c(-c4c(O)cccc4F)c(Cl)cc23)CC1 | Active | < 50% | Active | 5850 ng/mL | 7.9 mm3 | 17.9% | 23.4 µM | 0.3 µM | 1.37 mL/min | 0.5 µM | 0.7 µM | 15 min | 363 mL | Active | 174 min | 52.2 µM | 10.9 µM | 0.8 g | 3.7 g | 3740 ng·h/mL | 
